Measured values from paper PMC12238723, “Phase I Clinical Trial of CVL218, a Novel PARP1/2 Inhibitor, in Patients with Advanced Solid Tumors” (MedComm, 2025).

System: patients with advanced solid tumors
Test: Treatment-related adverse events (CTCAE v5.0), phase I dose escalation
Format: in vivo
Text: This study was a single‐arm, dose‐escalation phase I trial conducted in Sun Yat‐sen University Cancer Center in China. This study assessed CVL218 in patients with histologically or cytologically confirmed advanced solid tumors who were in PD after standard therapeutic regimens or lacked standard treatment options. Inclusion criteria included: age 18–75 years; with at least one measurable and evaluable target lesion per Response Evaluation Criteria in Solid Tumors 1.1 (RECIST 1.1); ECOG performance status of 0 or 1; adequate hematological, renal, cardiac, and hepatic functions and a life expectancy ≥12 weeks. Key exclusion criteria included prior usage of PARP inhibitors; allergic to the research drug or its components; with active, unstable systemic diseases or active, uncontrolled infection; a history of other malignancies within 5 years, and pregnant or lactating women.
CVL218 was administered orally, and this dose‐escalation trial included nine dose levels: 100 mg QD (50 mg BID), 200 mg QD (100 mg BID), 400 mg QD (200 mg BID), 700 mg QD (350 mg BID), 1000 mg QD (500 mg BID), 1200 mg QD (600 mg BID), 1400 mg QD (700 mg BID), 1700 mg QD (850 mg BID), and 2000 mg QD (1000 mg BID). Patients enrolled in the study received a single oral dose on the first day, followed by continuous multiple dosing (twice a day taking 12 h apart) after 72 h, with the treatment cycle lasting 4 weeks. The period during which patients received a single dose is designated as cycle 0 (C0), lasting 72 h. After this period, patients begin multiple dosing, referred to as cycle 1 (C1). An initial accelerated titration design was employed for the three lowest dose groups, and the “3+3” design was applied starting with the 300 mg BID cohort.
The primary objectives were to assess safety and tolerability as well as to determine the MTD, DLT, and dose recommended for further study. DLT was defined as any of the following events occurring during cycle 0 (including 72 h wash‐out period after a single dose) and cycle 1 per Common Terminology Criteria for Adverse Events (CTCAE) version 5.0: grade 4 anemia; grade 4 neutropenia; grade 3 neutropenia with fever ≥38.5°C; grade 4 thrombocytopenia; grade 3 thrombocytopenia associated with bleeding; grade ≥2 neurotoxicity; any other grade ≥3 nonhematological toxicities (excluding alopecia). The secondary objectives were to assess the PK and preliminary efficacy of CVL218.
Subjects who received at least one dose of CVL218 with postadministration safety records were included in safety analysis set. Subjects who received at least one dose of CVL218 with at least one evaluable PK parameter were included in PK analysis set. Per‐protocol set were used for efficacy analysis. Descriptive statistics of safety were presented per CTCAE v5.0. The PK parameters T max and T 1/2 were shown as the median (min, max) and mean ± SD, respectively. A two‐sided p < 0.05 was considered to indicate statistical significance. Statistical analysis was performed by using GraphPad prism 8.0.2 and R‐4.3.3.

CNCc1ccc(-c2cc3cc(F)cc(C(N)=O)c3o2)cc1.Cl [CVL218]
1 (20) n (%): Abdominal pain (850 mg BID, ≥G3) | Gastrointestinal disorders (850 mg BID, ≥G3)
2 (40.0) n (%): Any AE related to study drug (850 mg BID, ≥G3) | Blood creatinine increased (850 mg BID, ≥G3) | Laboratory test disorders (850 mg BID, ≥G3)
1 (20.0) n (%): WBC count increased (850 mg BID, ALL)
1 (25.0) n (%): Any AE related to study drug (600 mg BID, ≥G3)
0 n (%): Abdominal distension (600 mg BID, ≥G3) | Abdominal pain (600 mg BID, ≥G3) | Abdominal pain upper (600 mg BID, ≥G3) | Amylase increased (600 mg BID, ≥G3) | Anemia (600 mg BID, ≥G3) | Asthenia (600 mg BID, ≥G3) | Blood system disorders (600 mg BID, ≥G3) | Blood triglycerides increased (600 mg BID, ≥G3) | Cardiac disorders (600 mg BID, ≥G3) | Chest discomfort (600 mg BID, ≥G3) | Constipation (600 mg BID, ≥G3) | Decreased appetite (600 mg BID, ≥G3) | Diarrhea (600 mg BID, ≥G3) | Dizziness (600 mg BID, ≥G3) | Erectile dysfunction (600 mg BID, ≥G3) | Gastrointestinal disorders (600 mg BID, ≥G3) | General disorders (600 mg BID, ≥G3) | Gingival bleeding (600 mg BID, ≥G3) | Granulocyte count increased (600 mg BID, ≥G3) | Headache (600 mg BID, ≥G3) | Hypoalbuminemia (600 mg BID, ≥G3) | Infusion site pain (600 mg BID, ≥G3) | Limb discomfort (600 mg BID, ≥G3) | Lipase increased (600 mg BID, ≥G3) | Metabolic disorders (600 mg BID, ≥G3) | Musculoskeletal discomfort (600 mg BID, ≥G3) | Musculoskeletal disorders (600 mg BID, ≥G3) | Nausea (600 mg BID, ≥G3) | Nervous system disorders (600 mg BID, ≥G3) | Neutrophil count decreased (600 mg BID, ≥G3) | Neutrophil count increased (600 mg BID, ≥G3) | Palpitations (600 mg BID, ≥G3) | Protein urine present (600 mg BID, ≥G3) | Proteinuria (600 mg BID, ≥G3) | Rash (600 mg BID, ≥G3) | Renal & urinary disorders (600 mg BID, ≥G3) | Renal failure (600 mg BID, ≥G3) | Reproductive disorders (600 mg BID, ≥G3) | Skin disorders (600 mg BID, ≥G3) | Urinary occult blood positive (600 mg BID, ≥G3) | Vomiting (600 mg BID, ≥G3) | WBC count decreased (600 mg BID, ≥G3) | WBC count increased (600 mg BID, ≥G3) | Infusion site pain (700 mg BID, ALL) | WBC count increased (700 mg BID, ALL) | ALT increased (700 mg BID, ≥G3) | AST increased (700 mg BID, ≥G3) | Abdominal distension (700 mg BID, ≥G3) | Abdominal pain (700 mg BID, ≥G3) | Abdominal pain upper (700 mg BID, ≥G3) | Amylase increased (700 mg BID, ≥G3) | Anemia (700 mg BID, ≥G3) | Any AE related to study drug (700 mg BID, ≥G3) | Asthenia (700 mg BID, ≥G3) | Blood creatinine increased (700 mg BID, ≥G3) | Blood system disorders (700 mg BID, ≥G3) | Blood triglycerides increased (700 mg BID, ≥G3) | Blood urea increased (700 mg BID, ≥G3) | Cardiac disorders (700 mg BID, ≥G3) | Chest discomfort (700 mg BID, ≥G3) | Constipation (700 mg BID, ≥G3) | Decreased appetite (700 mg BID, ≥G3) | Diarrhea (700 mg BID, ≥G3) | Dizziness (700 mg BID, ≥G3) | Erectile dysfunction (700 mg BID, ≥G3) | Gastrointestinal disorders (700 mg BID, ≥G3) | General disorders (700 mg BID, ≥G3) | Gingival bleeding (700 mg BID, ≥G3) | Granulocyte count increased (700 mg BID, ≥G3) | Headache (700 mg BID, ≥G3) | Hypoalbuminemia (700 mg BID, ≥G3) | Infusion site pain (700 mg BID, ≥G3) | Laboratory test disorders (700 mg BID, ≥G3) | Limb discomfort (700 mg BID, ≥G3) | Lipase increased (700 mg BID, ≥G3) | Metabolic disorders (700 mg BID, ≥G3) | Musculoskeletal discomfort (700 mg BID, ≥G3) | Musculoskeletal disorders (700 mg BID, ≥G3) | Nausea (700 mg BID, ≥G3) | Nervous system disorders (700 mg BID, ≥G3) | Neutrophil count decreased (700 mg BID, ≥G3) | Neutrophil count increased (700 mg BID, ≥G3) | Palpitations (700 mg BID, ≥G3) | Protein urine present (700 mg BID, ≥G3) | Proteinuria (700 mg BID, ≥G3) | Rash (700 mg BID, ≥G3) | Renal & urinary disorders (700 mg BID, ≥G3) | Renal failure (700 mg BID, ≥G3) | Reproductive disorders (700 mg BID, ≥G3) | Skin disorders (700 mg BID, ≥G3) | Urinary occult blood positive (700 mg BID, ≥G3) | Vomiting (700 mg BID, ≥G3) | WBC count decreased (700 mg BID, ≥G3) | WBC count increased (700 mg BID, ≥G3) | Infusion site pain (850 mg BID, ALL) | ALT increased (850 mg BID, ≥G3) | AST increased (850 mg BID, ≥G3) | Abdominal distension (850 mg BID, ≥G3) | Abdominal pain upper (850 mg BID, ≥G3) | Amylase increased (850 mg BID, ≥G3) | Anemia (850 mg BID, ≥G3) | Asthenia (850 mg BID, ≥G3) | Blood system disorders (850 mg BID, ≥G3) | Blood triglycerides increased (850 mg BID, ≥G3) | Blood urea increased (850 mg BID, ≥G3) | Cardiac disorders (850 mg BID, ≥G3) | Chest discomfort (850 mg BID, ≥G3) | Constipation (850 mg BID, ≥G3) | Decreased appetite (850 mg BID, ≥G3) | Diarrhea (850 mg BID, ≥G3) | Dizziness (850 mg BID, ≥G3) | Erectile dysfunction (850 mg BID, ≥G3) | General disorders (850 mg BID, ≥G3) | Gingival bleeding (850 mg BID, ≥G3) | Granulocyte count increased (850 mg BID, ≥G3) | Headache (850 mg BID, ≥G3) | Hypoalbuminemia (850 mg BID, ≥G3) | Infusion site pain (850 mg BID, ≥G3) | Limb discomfort (850 mg BID, ≥G3) | Lipase increased (850 mg BID, ≥G3) | Metabolic disorders (850 mg BID, ≥G3)
